This passage reports EC50 results from patent US20250026759A1 (Merck Sharp & Dohme LLC, priority 2023, published 2025).

One may read the EC50 as the concentration giving half of the maximal effect.

One assay deals with PBMCs infected with VSV-G pseudotyped HIV virus (VSV-G/pNLG1-P2A-ΔEnv). In words: cells. It is filed as cell-based, human. Particulars: Homo sapiens, PBMC, read-out: TACK EC50.
`CC(F)(F)[C@@]1(C#CC2CC2)NC(=O)Nc2cc(Cn3ccc(S(N)(=O)=O)n3)c(F)cc21` [Example 120, (S)-1-((4-(cyclopropylethynyl)-4-(1,1-difluoroethyl)-6-fluoro-2-oxo-1,2,3,4-tetrahydroquinazolin-7-yl)methyl)-1H-pyrazole-3-sulfonamide]: the EC50 turned out to be 61.7 nM.

For `CNc1ccn(Cc2cc3c(cc2F)[C@@](C#CC2CC2)(C(C)(F)F)NC(=O)N3)n1` [Example 75, (S)-4-(cyclopropylethynyl)-4-(1,1-difluoroethyl)-6-fluoro-7-((3-(methylamino)-1H-pyrazol-1-yl)methyl)-3,4-dihydroquinazolin-2(1H)-one], the EC50 stood at 36.9 nM.

With `NC(=O)c1nccn1Cc1cc2c(cc1F)[C@@](C#CC1CC1)(C(F)(F)C1CC1)NC(=O)N2` [Example 62, (S)-1-((4-(cyclopropyldifluoromethyl)-4-(cyclopropylethynyl)-6-fluoro-2-oxo-1,2,3,4-tetrahydroquinazolin-7-yl)methyl)-1H-imidazole-2-carboxamide], the EC50 came out at 31.9 nM.

On to `CC(F)(F)[C@@]1(C#CC2CC2)NC(=O)Nc2cc(Cn3ccc(-c4cc[nH]n4)n3)c(F)cc21` [Example 52, (S)-7-(1H,1′H-[3,3′-bipyrazol]-1-ylmethyl)-4-(cyclopropylethynyl)-4-(1,1-difluoroethyl)-6-fluoro-3,4-dihydroquinazolin-2(1H)-one], for which the EC50 stood at 28.3 nM.

In the case of `CC(F)(F)[C@@]1(C#CC2CC2)NC(=O)Nc2cc(Cn3cc(-c4ccncc4)cn3)c(F)cc21` [Example 10, (S)-4-(cyclopropylethynyl)-4-(1,1-difluoroethyl)-6-fluoro-7-((4-(pyridin-4-yl)-1H-pyrazol-1-yl)methyl)-3,4-dihydroquinazolin-2(1H)-one], the EC50 came out at 37.2 nM.

Turning to `CC(F)(F)[C@@]1(C#CC2CC2)NC(=O)Nc2cc(Cn3cc(F)c(CO)n3)c(F)cc21` [Example 67, (S)-4-(cyclopropylethynyl)-4-(1,1-difluoroethyl)-6-fluoro-7-((4-fluoro-3-(hydroxymethyl)-1H-pyrazol-1-yl)methyl)-3,4-dihydroquinazolin-2(1H)-one], the EC50 worked out at 26.1 nM.

In the case of `CC(F)(F)[C@@]1(C#CC2CC2)NC(=O)Nc2cc(Cn3cc(C(F)F)cn3)c(F)cc21` [Example 121, (S)-4-(cyclopropylethynyl)-4-(1,1-difluoroethyl)-7-((4-(difluoromethyl)-1H-pyrazol-1-yl)methyl)-6-fluoro-3,4-dihydroquinazolin-2(1H)-one], the half-maximal effective concentration (EC50) came out at 67.9 nM.

With `CC(F)(F)[C@@]1(C#CC2CC2)NC(=O)Nc2cc(Cn3[nH]c(=O)c4c3CCC4)c(F)cc21` [Example 61, (S)-4-(cyclopropylethynyl)-4-(1,1-difluoroethyl)-6-fluoro-7-((3-oxo-3,4,5,6-tetrahydrocyclopenta[c]pyrazol-1(2H)-yl)methyl)-3,4-dihydroquinazolin-2(1H)-one], the EC50 was determined as 30.6 nM.

Turning to `O=C1Nc2cc(Cn3ccc4c3CCNC4=O)c(F)cc2[C@@](C#CC2CC2)(C(F)(F)F)N1` [Example 98, (S)-4-(cyclopropylethynyl)-6-fluoro-7-((4-oxo-4,5,6,7-tetrahydro-1H-pyrrolo[3,2-c]pyridin-1-yl)methyl)-4-(trifluoromethyl)-3,4-dihydroquinazolin-2(1H)-one], the 50% effective concentration (EC50) is 65.4 nM.

In the case of `O=C1Nc2cc(Cn3cc4cncnc4n3)c(F)cc2[C@@](C#CC2CC2)(C(F)(F)F)N1` [Example 27, (S)-7-((2H-pyrazolo[3,4-d]pyrimidin-2-yl)methyl)-4-(cyclopropylethynyl)-6-fluoro-4-(trifluoromethyl)-3,4-dihydroquinazolin-2(1H)-one], the EC50 was 82.6 nM.

On to `CC(F)(F)[C@@]1(C#CC2CC2)NC(=O)Nc2cc(Cn3c(Cl)n[nH]c3=O)c(F)cc21` [Example 35, (S)-7-((3-chloro-5-oxo-1,5-dihydro-4H-1,2,4-triazol-4-yl)methyl)-4-(cyclopropylethynyl)-4-(1,1-difluoroethyl)-6-fluoro-3,4-dihydroquinazolin-2(1H)-one], for which the EC50 was found to be 10.9 nM.

As to `CC(F)(F)[C@@]1(C#CC2CC2)NC(=O)Nc2cc(Cn3c(=O)[nH]c4ccccc43)c(F)cc21` [Example 12, (S)-4-(cyclopropylethynyl)-4-(1,1-difluoroethyl)-6-fluoro-7-((2-oxo-2,3-dihydro-1H-benzo[d]imidazol-1-yl)methyl)-3,4-dihydroquinazolin-2(1H)-one], the EC50 turned out to be 19.6 nM.

As for `Cc1nn(C)c(=O)n1Cc1cc2c(cc1F)[C@@](C#CC1CC1)(C(F)(F)F)NC(=O)N2` [Example 32, (S)-4-(cyclopropylethynyl)-7-((1,3-dimethyl-5-oxo-1,5-dihydro-4H-1,2,4-triazol-4-yl)methyl)-6-fluoro-4-(trifluoromethyl)-3,4-dihydroquinazolin-2(1H)-one], the EC50 amounted to 14.4 nM.

Consider `O=C1Nc2cc(CNC(=O)c3[nH]cnc3Cl)c(F)cc2[C@@](C#CC2CC2)(C(F)(F)F)N1` [Example 78, (S)-4-chloro-N-((4-(cyclopropylethynyl)-6-fluoro-2-oxo-4-(trifluoromethyl)-1,2,3,4-tetrahydroquinazolin-7-yl)methyl)-1H-imidazole-5-carboxamide], for which the EC50 was 15.1 nM.

As to `NC(=O)c1ncn(Cc2cc3c(cc2F)[C@@](C#CC2CC2)(C(F)(F)F)NC(=O)N3)n1` (single isomer, unassigned) [Example 117], the EC50 turned out to be 31.6 nM.

Regarding `Cc1nn(C)c(=O)n1Cc1cc2c(cc1F)[C@@](C#CC1CC1)(C(C)(F)F)NC(=O)N2` [Example 108, (S)-4-(cyclopropylethynyl)-4-(1,1-difluoroethyl)-7-((1,3-dimethyl-5-oxo-1,5-dihydro-4H-1,2,4-triazol-4-yl)methyl)-6-fluoro-3,4-dihydroquinazolin-2(1H)-one], the EC50 was determined as 18.3 nM.

Consider `COc1ccc(-c2ccn(Cc3cc4c(cc3F)[C@@](C#CC3CC3)(C(C)(F)F)NC(=O)N4)n2)cc1` [Example 97, (S)-4-(cyclopropylethynyl)-4-(1,1-difluoroethyl)-6-fluoro-7-((3-(4-methoxyphenyl)-1H-pyrazol-1-yl)methyl)-3,4-dihydroquinazolin-2(1H)-one], for which the EC50 was 45.3 nM.

In the case of `CC(F)(F)[C@@]1(C#CC2CC2)NC(=O)Nc2cc(Cn3ncc4ccccc43)c(F)cc21` [Example 91, (S)-7-((1H-indazol-1-yl)methyl)-4-(cyclopropylethynyl)-4-(1,1-difluoroethyl)-6-fluoro-3,4-dihydroquinazolin-2(1H)-one], the EC50 came out at 27.3 nM.

`O=C1Nc2cc(Cn3cc4cnccc4n3)c(F)cc2[C@@](C#CC2CC2)(C(F)(F)F)N1` [Example 21, (S)-7-((2H-pyrazolo[4,3-c]pyridin-2-yl)methyl)-4-(cyclopropylethynyl)-6-fluoro-4-(trifluoromethyl)-3,4-dihydroquinazolin-2(1H)-one]: the EC50 was 13.4 nM.

As to `CC(F)(F)[C@@]1(C#CC2CC2)NC(=O)Nc2cc(CNC(=O)c3[nH]cnc3Cl)c(F)cc21` [Example 77, (S)-4-chloro-N-((4-(cyclopropylethynyl)-4-(1,1-difluoroethyl)-6-fluoro-2-oxo-1,2,3,4-tetrahydroquinazolin-7-yl)methyl)-1H-imidazole-5-carboxamide], the EC50 stood at 8.7 nM.

In the case of `CC(F)(F)[C@@]1(C#CC2CC2)NC(=O)Nc2cc(Cn3cc4ccccc4n3)c(F)cc21` [Example 90, (S)-7-((2H-indazol-2-yl)methyl)-4-(cyclopropylethynyl)-4-(1,1-difluoroethyl)-6-fluoro-3,4-dihydroquinazolin-2(1H)-one], the EC50 was 9.4 nM.

In the case of `COCc1ccn(Cc2cc3c(cc2F)[C@@](C#CC2CC2)(C(C)(F)F)N(C)C(=O)N3)n1` [Example 112, (S)-4-(cyclopropylethynyl)-4-(1,1-difluoroethyl)-6-fluoro-7-((3-(methoxymethyl)-1H-pyrazol-1-yl)methyl)-3-methyl-3,4-dihydroquinazolin-2(1H)-one], the EC50 is 18.1 nM.

Take `CC(F)(F)[C@@]1(C#CC2CC2)NC(=O)Nc2cc(Cn3cc(Cl)c(CO)n3)c(F)cc21` [Example 71, (S)-7-((4-chloro-3-(hydroxymethyl)-1H-pyrazol-1-yl)methyl)-4-(cyclopropylethynyl)-4-(1,1-difluoroethyl)-6-fluoro-3,4-dihydroquinazolin-2(1H)-one]: the EC50 stood at 30 nM.

Turning to `O=C1Nc2cc(Cn3nccc3CO)c(F)cc2[C@@](C#CC2CC2)(C(F)(F)F)N1` (single isomer, unassigned) [Example 5], the EC50 amounted to 109 nM.

As for `CC(F)(F)[C@@]1(C#CC2CC2)NC(=O)Nc2cc(Cn3cnc4ccccc43)c(F)cc21` [Example 94, (S)-7-((1H-benzo[d]imidazol-1-yl)methyl)-4-(cyclopropylethynyl)-4-(1,1-difluoroethyl)-6-fluoro-3,4-dihydroquinazolin-2(1H)-one], the EC50 came out at 44.2 nM.

With `CC(F)(F)[C@@]1(C#CC2CC2)NC(=O)Nc2cc(Cn3ccc(N)n3)c(F)cc21` [Example 43, (S)-7-((3-amino-1H-pyrazol-1-yl)methyl)-4-(cyclopropylethynyl)-4-(1,1-difluoroethyl)-6-fluoro-3,4-dihydroquinazolin-2(1H)-one], the EC50 turned out to be 8.5 nM.

Still in this assay, the particulars now being: read-out: TACK EC50.
In the case of `COC(C)c1ccn(Cc2cc3c(cc2F)[C@@](C#CC2CC2)(C(C)(F)F)NC(=O)N3)n1` (single isomer, unassigned) [Example 59, (S)-4-(cyclopropylethynyl)-4-(1,1-difluoroethyl)-6-fluoro-7-((3-((S or R)-1-methoxyethyl)-1H-pyrazol-1-yl)methyl)-3,4-dihydroquinazolin-2(1H)-one], the 50% effective concentration (EC50) stood at 55.6 nM.

As for `CC(O)c1ccn(Cc2cc3c(cc2F)[C@@](C#CC2CC2)(C(C)(F)F)NC(=O)N3)n1` (single isomer, unassigned) [Example 73, (S)-4-(cyclopropylethynyl)-4-(1,1-difluoroethyl)-6-fluoro-7-((3-((R or S)-1-hydroxyethyl)-1H-pyrazol-1-yl)methyl)-3,4-dihydroquinazolin-2(1H)-one], the EC50 turned out to be 24.5 nM.
